Data as given in US8846044B2, “Stabilizing alkylglycoside compositions and methods thereof” (Aegis Therapeutics, LLC, priority 2006, dated 2014).
Where two headings read alike, the source gives them in different places.

Tests used:
[1] = in water; cited from earlier work
[2] = tested on: isolated nasal cilia; conditions: cited from earlier work
[3] = tested on: nasal mucosa; conditions: cited from earlier work
[4] = DAPTA fibril formation in solution (EM, FTIR, CD, dye binding); type: physicochemical; conditions: for Time to form aggregates: distilled water, 10 mg/ml
Experimental: Preparation of DAPTA solutions. DAPTA was dissolved in water, and solutions maintained at various temperatures and times. To prepare fibrils, DAPTA was prepared at 10 mgs/mL in water and stored overnight at 4° C.
Determining fibril formation.
Congo red was dissolved in PBS (5 mM potassium phosphate, 150 mM NaCl, pH 7.4) to a concentration of 7 ug/mL. The solution was chilled to 4° C., and DAPTA added as a 10 mg/mL stock solution in water, to yield final peptide concentration in the dye solution of 0.48 mg/mL. Peptide solution immediately after dissolution of powder was compared with an aged stock solution containing aggregated peptides. Spectra were collected between 400-700 nm, at 4° C.
Fibril formation of peptide T or analog thereof can also be determined using Circular Dichroism (CD) spectroscopy. Ten mg/mL solutions in water of either freshly prepared peptide or containing fibrillar aggregates was added to distilled water at 4° C. to a concentration of 50 ug/mL. CD spectra were collected on a Jasco model J-810 spectrometer using a 0.1 cm path length quartz cuvette, between 190-250 nm, with a […] interval, and a response time of 2 sec.
Still another method of determining fibril formation of peptide T or analog thereof is performed using Fourier Transform Infrared (FTIR) Spectroscopy. DAPTA was dissolved in deuterated water, to a concentration of 10 mg/ml and incubated under temp and time conditions that promote fibril formation. 25 ul samples were then placed in a pre-cooled transmission cell with NaCl windows separated by a 6 um spacer. FTIR spectra were collected on a BioRad FTS-175C Fourier transform spectrometer in transmission mode using a DTGS detector. 2506 interferograms were recorded with a 2 cm-1 resolution. Water vapor was subtracted and the spectra baselines corrected.

[5] = tested on: HIV BaL; type: cell-based, HIV-1; conditions: dried, in water about three days
[6] = tested on: envelop (gp120) binding; conditions: 1987 report; cited from earlier work
[7] = tested on: people with AIDS; conditions: cited from earlier work; for Patients with improved neuro-psychological performance: early AIDS dementia (Kosten et al., 1997)
[8] = tested on: HIV BaL; type: cell-based, HIV-1; conditions: dried
Experimental: Inhibition of HIV infection is studied by utilizing an infection assay in which GHOST CD4 CCR5 cells are infected with HIV BaL, an R5 tropic isolate (Ruff, M R et al., 2001). Infection is detected via viral induction of the hGFP gene (green fluorescent protein) 48 hrs post-infection. Trays are measured in a plate reader to determine fluorescence intensity. All infections are performed by adding fresh culture medium containing approximately 1,000 infectious units of HIV-1 per well (96-well plates). […]
The peptide was dissolved in the indicated concentration of TFE in water and then shaken or agitated for 24 hrs at 37° C. The peptide was subsequently dried down, and the TFE/water mixture removed under vacuum. […] Although TFE is removed, residual traces of TFE within acceptable range for human consumption may remain.
Inhibition of HIV infection was studied by utilizing an infection assay using GHOST CD4 as previously described by Ruff, M R et al., 2001. CCR5 cells are infected with HIV BaL, an R5 tropic isolate. Infection is detected via viral induction of the hGFP gene (green fluorescent protein) about 48 hours post-infection. Trays were measured in a plate reader to determine fluorescence intensity. All infections were performed by adding fresh culture medium containing approximately 1,000 infectious units of HIV-1 per well (96-well plates).
Again, the peptide was then evaporated or dried down, and resuspended in an aqueous solution, e.g., water for about three days, and tested for anti-HIV activity, as above.

[9] = tested on: HIV; assay: Inhibition of HIV infectivity in vitro by stored DAPTA solutions; type: cell-based
Experimental: Aggregation is discovered to be associated with a loss of biological activity in vitro. Typically, the recommended protocol is to have DAPTA stored at 0.1 mM solutions in water at 4° C.
Aggregation is reduced in the presence of trifluoroethanol (TFE). TFE was selected because of its property of reducing certain types of protein-protein interactions. DAPTA was dissolved in either distilled water, or solutions containing between 60% and 100% TFE. Aggregation was evaluated by assaying inhibition of HIV infectivity, in vitro. […] Also, TFE is capable of disassociating preformed aggregates of DAPTA. Aggregates of DAPTA, formed in distilled water were disrupted by addition of TFE to 80%, as measured by EM.

[10] = Light scatter of beta interferons, Pramlintide and calcitonin with and without dodecyl maltoside; conditions: 37° C., 150 RPM, 38 day test period

In the case of `CCCCCCCCCCCCO[C@@H]1O[C@H](CO)[C@@H](O[C@H]2O[C@H](CO)[C@@H](O)[C@H](O)[C@H]2O)[C@H](O)[C@H]1O` [Dodecyl β-D-maltoside], the CMC [1] is given as 0.17 mM.

For benzalkonium chloride [BAC], the “Effect on isolated nasal cilia in vitro” value [2] is given as “ciliotoxic”, the “Saccharine transport time and proinflammatory indicators in vivo” value [3] is given as “did not alter saccharine transport time” and the “Damage to the nasal mucosa” value ([3]; in vivo) is given as “no significant damage to the nasal mucosa”. For the same molecule, the Nasal irritation ([3]; in vivo) was “no discernible negative effects” and the Nasal mucosal function ([3]; in vivo) was “no detectable effect on the nasal mucosal function”.

For `CCCCCCCCCCO[C@@H]1O[C@H](CO)[C@@H](O[C@H]2O[C@H](CO)[C@@H](O)[C@H](O)[C@H]2O)[C@H](O)[C@H]1O` [Decyl maltoside], the CMC [1] is given as 1.8 mM.

In the case of `CCCCCCCCCCCCCCO[C@@H]1O[C@H](CO)[C@@H](O[C@@H]2O[C@@H](CO)[C@H](O)[C@@H](O)[C@@H]2O)[C@H](O)[C@H]1O` (stereo in doubt) [Tetradecyl maltoside], the CMC [1] is given as 0.01 mM.

In the case of D-ala^1-Peptide T-amide [DAPTA], the “Dissociation of aggregates on warming” value ([4]; 5 mg/mL in 0.45% NaCl, warmed to 37° C. for about 17-24 hours with shaking) is reported as “reversibly dissociate”, the “Time to observable fibril formation” value ([4]; 0.9% saline (10 mg/mL), room or ambient temperature) is reported as no more than 48 h and the “Time to observable fibrillization” value ([4]; 0.9% saline (10 mg/mL), stored at 4° C.) is reported as “less than 1 hour”. For the same molecule, the “Effect of TFE on preformed aggregates, by EM” value ([4]; aggregates formed in distilled water, TFE added to 80%) was “disrupted”, the “Time to form aggregates” value ([4]; 4 deg. C.) was no more than 2 h and the “Time to form aggregates” value ([4]; room temperature) was 24 to 170 h. The “Percent Reduction in HIV Infection” value ([5]; 80% TFE, shaken about 24 hours at Room Temp.) was 70 ± 6%, the “Percent Reduction in HIV Infection” value ([5]; about 80% TFE/water, shaken 12 hrs at 37 degrees) was 70 ± 4% and the “Percent Reduction in HIV Infection” value ([5]; about 80% TFE/water, shaken 48 hrs at 37 degrees) was 100 ± 3%. For the same molecule, the “Concentration that blocks envelop (gp120) binding and inhibits viral infectivity” value [6] was 10 pM, the “Neuropsychological performance versus placebo” value ([7]; 2 mg three times daily intranasally, at least four months (Heseltine et al., 1998)) was “no difference in neuropsychological performance” and the “Patients with improved neuro-psychological performance” value ([7]; high dose (15 mg daily)) was 4/5. For the same molecule, the “Persistently infected monocyte reservoir” value ([7]; human, in vivo) was “greatly reduced or flushed to undetectable levels in all patients”, the “Patients with improved neuro-psychological performance” value ([7]; low dose (1.5 mg daily)) was 1/4 and the “Lower limb pain in HIV-related peripheral neuropathy” value ([7]; nine individuals, subcutaneously 10 mg daily (MacFadden and Doob 1991)) was “complete or subjectively significant resolution of lower limb pain”. The Adverse drug effects ([7]; nine individuals, subcutaneously (MacFadden and Doob 1991)) was “No adverse drug effects were noted”, the “Cognitive and neuromotor function versus controls” value ([7]; phase I, 0.1 to 3.2 mg/kg/day intravenously, moderate impairment (Bridge et al. 1989)) was “Cognitive and neuromotor function improved” and the “Painful peripheral neuropathy versus placebo” value ([7]; phase II double-blind, 6 mg/day for 12 weeks (Simpson et al. 1996)) was “no statistically significant differences”. The “Percent Reduction in HIV Infection” value ([8]; 0.1 nM DAPTA, TFE Concentration 0 %, shaken 24 hrs at 37° C., stored in water about 3 days) was 0 ± 2%, the “Percent Reduction in HIV Infection” value ([8]; 0.1 nM DAPTA, TFE Concentration 20 %, shaken 24 hrs at 37° C., stored in water about 3 days) was 0 ± 3% and the “Percent Reduction in HIV Infection” value ([8]; 0.1 nM DAPTA, TFE Concentration 40 %, shaken 24 hrs at 37° C., stored in water about 3 days) was 0 ± 2%. For the same molecule, the “Percent Reduction in HIV Infection” value ([8]; 0.1 nM DAPTA, TFE Concentration 60 %, shaken 24 hrs at 37° C., stored in water about 3 days) was 20 ± 4%, the “Percent Reduction in HIV Infection” value ([8]; 0.1 nM DAPTA, TFE Concentration 80 %, shaken 24 hrs at 37° C., stored in water about 3 days) was 100 ± 5% and the “Percent Reduction in HIV Infection” value ([8]; 0.1 nM DAPTA, TFE Concentration 100 %, shaken 24 hrs at 37° C., stored in water about 3 days) was 98 ± 3%. The “Percent Reduction in HIV Infection” value ([8]; 80% TFE, shaken about 24 hours at 37 ° C., in water about three days) was 100 ± 5%, the “Percent Reduction in HIV Infection” value ([8]; about 80% TFE/water, shaken 24 hrs at 37 degrees, in water about three days) was 100 ± 3% and the “Time to substantial loss of activity (HIV uptake inhibition in vitro)” value ([9]; 0.1 mM solution in water at 4° C.) was “about 6 weeks”. For the same molecule, the “Activity after storage (inhibition of HIV infectivity in vitro)” value ([9]; stored in TFE between 60% and 100% versus water) was “retained more activity”.

For `CCCCCCCCO[C@@H]1O[C@H](CO)[C@@H](O[C@H]2O[C@H](CO)[C@@H](O)[C@H](O)[C@H]2O)[C@H](O)[C@H]1O` [Octyl maltoside], the CMC [1] is listed as 19.5 mM.

In the case of `CCCCCCCCCCCCCO[C@@H]1O[C@H](CO)[C@@H](OC2OC(CO)C(O)C(O)C2O)[C@H](O)[C@H]1O` (stereo in doubt) [Tridecyl maltoside], the CMC [1] is listed as 0.03 mM.

In the case of Sucrose dodecanoate, the CMC [1] is given as 0.3 mM.

B1: Betaseron®: beta interferon 1b, Lot number YA0549A (protein, UniProt P01574 22-187, looked up, variant C17S)
Interferon beta: MSYNLLGFLQRSSNFQSQKLLWQLNGRLEYCLKDRMNFDIPEEIKQLQQFQKEDAALTIYEMLQNIFAIFRQDSSSTGWNETIVENLLANVYHQINHLKTVLEEKLEKEDFTRGKLMSSLHLKRYYGRILHYLKAKEYSHCAWTIVRVEILRNFYFINRLTGYLRN
modifications: interferon beta-1b, lacks N-terminal Met
With B1 the “Aggregation as increase in light scatter” value [10] was “much larger increase in light scatter” and the “Stabilization by 0.2% Dodecyl maltoside, in words” value ([10]; light scatter at 500 nm) was “greatest stabilization effect”.
